Data published in patent EP4603105A1, “PHARMACEUTICAL COMPOSITION CONTAINING CYCLIC COMPOUND HAVING SELECTIVE KRAS INHIBITORY EFFECT AGAINST HRAS AND NRAS” (CHUGAI SEIYAKU KABUSHIKI KAISHA, priority 2022, dated 2024).
Where two headings read alike, the source gives them in different places. *1 amine or outer side, *2 acyl side, *3 side chain or, on linkers, in order; H or OH if unused. Where a SMILES comes first, the peptide text is derived from it. Bridges are numbered along the chain shown (N, C = ends). [ ]: non-standard residue; d: D form. The star is where a group is joined. hPhe(3-Cl-4-CF3) = N[C@@H](CCc1ccc(C(F)(F)F)c(Cl)c1)C(=O)O; NPrPhe(4-CF3) = CCCN[C@@H](Cc1ccc(C(F)(F)F)cc1)C(=O)O; X21 = CCCN([C@H](C(=O)[*:2])C1CCCC1)[*:1]; NMeGly(cPent) = CN[C@H](C(=O)O)C1CCCC1; NMeD = CN[C@@H](CC(=O)O)C(=O)O; NMeL = CN[C@@H](CC(C)C)C(=O)O; Morpholide = C1CN(*)CCO1; Ac5c = NC1(C(=O)O)CCCC1; Aze = O=C(O)[C@@H]1CCN1; Sar = CNCC(=O)O

Experiments:
HRAS wild-type protein = HRAS wild-type protein (Homo sapiens, UniProt P01112); test: Binding to HRAS by surface plasmon resonance (SPR), KD and KD ratio to KRAS
Sequence of HRAS wild-type protein (P01112 whole entry): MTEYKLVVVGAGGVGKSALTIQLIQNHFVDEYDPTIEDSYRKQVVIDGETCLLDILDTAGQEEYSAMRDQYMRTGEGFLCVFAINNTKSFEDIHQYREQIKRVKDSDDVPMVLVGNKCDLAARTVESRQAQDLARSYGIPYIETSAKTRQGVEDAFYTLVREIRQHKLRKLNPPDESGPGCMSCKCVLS
How it was run: (§1)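 Measured at 30°C: SPR with GDP-loaded, E. coli-expressed biotin-Avi RAS captured (~100–300 RU), ascending 75 s compound injections, HBS pH 7.4 with GDP, MgCl2, 4% DMSO. KD from 1:1 fit.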

[1] = system: human lung cancer strain NCI-H441; assay type: cell-based
How it was run: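 Signal came from […] measured per well once the reagent was added. Beforehand, cells were cultured at 37°C and 5% carbon dioxide on a compound series serially diluted in dimethyl sulfoxide.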

[2] = molecular target: GDP-bound NRAS wild-type protein (Homo sapiens, UniProt P01111); test: Binding to NRAS by surface plasmon resonance (SPR), KD and KD ratio to KRAS
Sequence of GDP-bound NRAS wild-type protein (P01111 whole entry): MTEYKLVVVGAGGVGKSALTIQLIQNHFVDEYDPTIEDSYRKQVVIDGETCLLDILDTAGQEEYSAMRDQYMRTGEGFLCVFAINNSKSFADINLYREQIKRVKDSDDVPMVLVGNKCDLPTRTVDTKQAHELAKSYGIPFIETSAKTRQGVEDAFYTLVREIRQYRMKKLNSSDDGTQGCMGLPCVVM
How it was run: as §1

[3] = ratio of KD for HRAS wild-type protein to KD for KRAS
[4] = ratio of KD for GDP-bound NRAS wild-type protein to KD for KRAS
[5] = ratio of KD with respect to HRAS wild-type protein to KD with respect to KRAS
[6] = ratio of KD with respect to GDP-bound NRAS wild-type protein to KD with respect to KRAS
[7] = ratio of KD value for HRAS wild-type protein to KD value for KRAS (SPR)
[8] = ratio of KD value for GDP-bound NRAS wild-type protein to KD value for KRAS (SPR)
[9] = NCI-H441 cells, 4 days, CellTiter-Glo, read-out: NCl-H441 IC50

| SMILES | HRAS /KRAS (HRAS wild-type protein; [3]) | IC50 [1] [nM] | NRAS /KRAS [2, 4] | HRAS /KRAS (HRAS wild-type protein; [5]) | NRAS /KRAS [2, 6] | HRAS /KRAS (HRAS wild-type protein; [7]) | NRAS /KRAS [2, 8] | IC50 [1, 9] [nM] |
| --- | --- | --- | --- | --- | --- | --- | --- | --- |
| CCC(CC)[C@H]1C(=O)N(C)[C@H](C(=O)N(C)C)CC(=O)N(C)[C@H]2CCC/C=C/c3ccc(cc3)C[C@@H](C(=O)N(C)CC(=O)N[C@@H](CCc3ccc(Cl)c(Cl)c3)C(=O)N3CCC[C@H]3C(=O)NC3(CC(C)(C)C3)C(=O)N1C)N1CC/C=C\C[C@@H](C1=O)N(C)C(=O)CN(C)C(=O)[C@H]([C@@H](C)CC)NC2=O [PP2603] | A (a compound having 10 or more and less than 20 is denoted as A) | 25.7 | AA (a compound having 20 or more is denoted as AA) | – | – | – | – | – |
| CCO[C@@H]1C[C@H]2C(=O)NC3(CCC3)C(=O)N(C)[C@@H](C3CCCC3)C(=O)N(C)[C@H](C(=O)N(C)C)CC(=O)N(C)[C@@H](CC)C(=O)N[C@@H]([C@@H](C)CC)C(=O)N(CC)CC(=O)N(C)[C@H]3C/C=C\CCN(C3=O)[C@@H](Cc3ccc(C(F)(F)F)cc3)C(=O)N(C)CC(=O)N[C@@H](CCc3cc(F)c(C(F)(F)F)c(F)c3)C(=O)N2C1 [PP1052] | A (a compound having 10 or more and less than 20 is denoted as A) | 58.7 | A (a compound having 10 or more and less than 20 is denoted as A) | – | – | – | – | – |
| CCO[C@@H]1C[C@H]2C(=O)NC3(CCC3)C(=O)N(C)[C@@H](C3CCCC3)C(=O)N(C)[C@H](C(=O)N(C)C)CC(=O)N(C)[C@@H](CC(C)C)C(=O)N[C@@H]([C@@H](C)CC)C(=O)N3CC[C@H]3C(=O)N(C)[C@H]3CC(C)=CCN(C3=O)[C@@H](Cc3ccc(C(F)(F)F)cc3)C(=O)N(C)CC(=O)N[C@@H](CCc3cc(F)c(C(F)(F)F)c(F)c3)C(=O)N2C1 [PP1033] | C (A compound having a KD ratio of 0.1 or more and less than 3 is denoted as C) | 67.2 | C (A compound having a KD ratio of 0.1 or more and less than 3 is denoted as C) | – | – | – | – | – |
| CCO[C@@H]1C[C@H]2C(=O)NC3(CCC3)C(=O)N(C)[C@@H](C3CCCC3)C(=O)N(C)[C@H](C(=O)N(C)CCOC)CC(=O)N(C)[C@@H](CC3CC3)C(=O)N[C@@H]([C@@H](C)CC)C(=O)N(C)CC(=O)N(C)[C@H]3C/C=C\CCN(C3=O)[C@@H](Cc3ccc(C(F)(F)F)cc3)C(=O)N(C)CC(=O)N[C@@H](CCc3ccc4sccc4c3)C(=O)N2C1 [PP1328] | – | 134 | – | A (a compound having 10 or more and less than 20 is denoted as A) | A (a compound having 10 or more and less than 20 is denoted as A) | – | – | – |
| CCO[C@@H]1C[C@H]2C(=O)NC3(CCC3)C(=O)N(C)[C@@H](C(CC)CC)C(=O)N(C)C(C(C)C)CC(=O)N(C)[C@@H](CC)C(=O)N[C@@H]([C@@H](C)CC)C(=O)N(C)CC(=O)N(C)[C@H]3C/C=C\CCN(C3=O)[C@@H](Cc3ccc(C(F)(F)F)cc3)C(=O)N(C)CC(=O)N[C@@H](CCc3cc(F)c(C(F)(F)F)c(F)c3)C(=O)N2C1 (stereo partly drawn) [PP1589] | – | 86.6 | – | – | – | A (a compound having 10 or more and less than 20 is denoted as A) | A (a compound having 10 or more and less than 20 is denoted as A) | – |
| CCO[C@@H]1C[C@H]2C(=O)NC3(CCC3)C(=O)N(C)[C@@H](C(CC)CC)C(=O)N(C)[C@H](C(=O)N(C)CCOC)CC(=O)N(C)[C@@H](CC)C(=O)N[C@@H]([C@@H](C)CC)C(=O)N(C)CC(=O)N(C)[C@H]3C/C=C\CCN(C3=O)[C@@H](Cc3ccc(C(F)(F)F)cc3)C(=O)N(C)CC(=O)N[C@@H](CCc3cc(F)c(C(F)(F)F)c(F)c3)C(=O)N2C1 [PP1330] | – | 79.6 | – | A (a compound having 10 or more and less than 20 is denoted as A) | AA (a compound having 20 or more is denoted as AA) | – | – | – |
| CCO[C@@H]1C[C@H]2C(=O)NC3(CC(C)(C)C3)C(=O)N(C)[C@@H](C3CCCC3)C(=O)N(C)[C@H](C(=O)N(C)C)CC(=O)N(C)[C@@H](CC(C)C)C(=O)N[C@@H]([C@@H](C)CC)C(=O)N(C)CC(=O)N(C)[C@H]3C/C=C\CCN(C3=O)[C@@H](Cc3ccc(C(C)(F)F)cc3)C(=O)N(C)CC(=O)N[C@@H](CCc3ccc(C(F)(F)F)c(OC)c3)C(=O)N2C1 [PP2690] | A (a compound having 10 or more and less than 20 is denoted as A) | – | AA (a compound having 20 or more is denoted as AA) | – | – | – | – | 3 |
| CCCN1C(=O)[C@@H]2CCN2C(=O)CN(C)C(=O)[C@H]([C@@H](C)CC)NC(=O)[C@H](CC(C)C)N(C)C(=O)C[C@@H](C(=O)N2CCOCC2)N(C)C(=O)[C@H](C2CCCC2)N(C)C(=O)C2(CCCC2)NC(=O)[C@@H]2CCCN2C(=O)[C@H](CCc2ccc(C(F)(F)F)c(Cl)c2)NC(=O)CN(C)C(=O)[C@@H]1Cc1ccc(C(F)(F)F)cc1 [PP0156] ([NMeL]I[Sar][Aze][NPrPhe(4-CF3)][Sar][hPhe(3-Cl-4-CF3)]P[Ac5c][NMeGly(cPent)][NMeD]-Morpholide; lactam N-11) | B (a compound having 3 or more and less than 10 is denoted as B) | 8.1 | C (A compound having a KD ratio of 0.1 or more and less than 3 is denoted as C) | – | – | – | – | – |
| CC[C@H](C)[C@@H]1NC(=O)[C@H](C)N(C)C(=O)C[C@@H](C(=O)N(C)C)N(C)C(=O)[C@H](C2CCCC2)N(C)C(=O)C2(CC(C)(C)C2)NC(=O)[C@@H]2CC(F)(F)CN2C(=O)[C@H](CCc2cc(F)c(C(F)(F)F)c(F)c2)NC(=O)CN(C)C(=O)[C@H](Cc2ccc(C(F)(F)F)cc2)N2CC/C=C\C[C@@H](C2=O)N(C)C(=O)CN(C)C1=O [PP1707] | – | 7.4 | – | – | – | A (a compound having 10 or more and less than 20 is denoted as A) | AA (a compound having 20 or more is denoted as AA) | – |
| CCCN1C(=O)CN(C)C(=O)CN(C)C(=O)[C@H]([C@@H](C)CC)NC(=O)[C@H](CC(C)C)N(C)C(=O)C[C@@H](C(=O)N2CCOCC2)N(C)C(=O)[C@H](C2CCCC2)N(C)C(=O)C2(CCCC2)NC(=O)[C@@H]2CCCN2C(=O)[C@H](CCc2ccc(C(F)(F)F)c(Cl)c2)NC(=O)CN(C)C(=O)[C@@H]1C1CCCC1 [PP0061] ([NMeL]I[Sar][Sar][X21][Sar][hPhe(3-Cl-4-CF3)]P[Ac5c][NMeGly(cPent)][NMeD]-Morpholide; lactam N-11) | C (A compound having a KD ratio of 0.1 or more and less than 3 is denoted as C) | 84.4 | B (a compound having 3 or more and less than 10 is denoted as B) | – | – | – | – | – |
| CC[C@H](C)[C@@H]1NC(=O)[C@H](COC)N(C)C(=O)C[C@@H](C(=O)N2CCOCC2)N(C)C(=O)[C@H](C2CCCC2)N(C)C(=O)C2(CCC2)NC(=O)[C@@H]2C[C@H](OC)CN2C(=O)[C@H](CCc2cc(F)c(C(F)(F)F)c(F)c2)NC(=O)CN(C)C(=O)[C@H](Cc2ccc(C(F)(F)F)cc2)N2CCCCC[C@@H](C2=O)N(C)C(=O)CN(C)C1=O [PP0836] | B (a compound having 3 or more and less than 10 is denoted as B) | 360 | B (a compound having 3 or more and less than 10 is denoted as B) | – | – | – | – | – |
| CCC[C@H]1C(=O)N[C@@H]([C@@H](C)CC)C(=O)N(C)CC(=O)N(C)[C@H]2C/C=C\CCN(C2=O)[C@@H](Cc2ccc(C(F)(F)F)cc2)C(=O)N(C)CC(=O)N[C@@H](CCc2ccc(C3CC3)c(C)c2)C(=O)N2C[C@H](OCC)C[C@H]2C(=O)NC2(CC(C)(C)C2)C(=O)N(C)[C@@H](C2CCCC2)C(=O)N(C)[C@H](C(=O)N(C)C)CC(=O)N1C [PP2855] | A (a compound having 10 or more and less than 20 is denoted as A) | – | A (a compound having 10 or more and less than 20 is denoted as A) | – | – | – | – | 37.9 |
| CCC[C@H]1C(=O)N[C@@H]([C@@H](C)CC)C(=O)N(C)CC(=O)N(C)[C@H]2C/C=C\CCN(C2=O)[C@@H](Cc2ccc(C(F)(F)F)cc2)C(=O)N(C)CC(=O)N[C@@H](CCc2cc(F)c(C(F)(F)F)c(F)c2)C(=O)N2C[C@H](OCC)C[C@H]2C(=O)NC2(CCC2)C(=O)N(C)[C@@H](C2CCCC2)C(=O)N(C)[C@H](C(=O)N2CC3CCC(C2)O3)CC(=O)N1C [PP1315] | – | 34.5 | – | A (a compound having 10 or more and less than 20 is denoted as A) | AA (a compound having 20 or more is denoted as AA) | – | – | – |
| CCO[C@@H]1C[C@H]2C(=O)NC3(CCC3)C(=O)N(C)[C@@H](C3CCCC3)C(=O)N(C)[C@H](C(=O)N(C)C)CC(=O)N(C)[C@@H](CC3CCCC3)C(=O)N[C@@H]([C@@H](C)CC)C(=O)N(C)CC(=O)N(C)[C@H]3C/C=C\CCN(C3=O)[C@@H](Cc3ccc(C(F)(F)F)cc3)C(=O)N(C)CC(=O)N[C@@H](CCc3ccc(C(F)(F)F)c(Cl)c3)C(=O)N2C1 [PP2842] | B (a compound having 3 or more and less than 10 is denoted as B) | 7.2 | A (a compound having 10 or more and less than 20 is denoted as A) | – | – | – | – | – |
